Data as given in patent US20240150334A1, “HSD17B13 INHIBITORS AND/OR DEGRADERS” (Pfizer Inc., priority 2022, published 2024).
Counter-ions that a name gives are not always drawn.

What was measured:
HSD17B13 enzyme = HSD17B13 enzyme (Homo sapiens (Human), UniProt Q7Z5P4); assay: hHSD17B13 IC50 Assay (FAC beta-estradiol), purified protein enzyme activity assay with NAD(P)H-Glo luciferase readout; format: biochemical; settings: geometric mean, 12 μM FAC beta-estradiol, 500 μM NAD+, read-out: hHSD17B13_IC50 GMean IC50
Procedure, shortened: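 Purified human HSD17B13 (30 nM FAC) incubated with compound, beta-estradiol and NAD+ for 2 h at room temperature in the dark. NADH formation was detected by NAD(P)H-Glo luminescence after 1 h. RLUs normalized to uninhibited enzyme (vehicle) as zero effect.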

wild type human HSD17B13 = wild type human HSD17B13 (Homo sapiens (Human), UniProt Q7Z5P4); assay: HEK_Beta-Est LCMS_IC50_Tekcel, whole-cell HEK-HSD17B13 inhibition assay, estrone production by LCMS; format: cell-based; settings: geometric mean, HEK cells stably expressing wild type human HSD17B13, 25 μM FAC beta-estradiol, read-out: HEK_Beta-Est LCMS_IC50—Tekcel GMean IC50
Procedure, shortened: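 HEK cells expressing wild-type human HSD17B13 were preincubated with compound for 1 hour at 37° C, then the beta-estradiol/NAD+ reaction ran for 2 hours at 37° C. Estrone formed was quantified by LCMS as product area ratio and normalized to uninhibited vehicle-control wells.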

Sequence of wild type human HSD17B13 (Q7Z5P4 20-300): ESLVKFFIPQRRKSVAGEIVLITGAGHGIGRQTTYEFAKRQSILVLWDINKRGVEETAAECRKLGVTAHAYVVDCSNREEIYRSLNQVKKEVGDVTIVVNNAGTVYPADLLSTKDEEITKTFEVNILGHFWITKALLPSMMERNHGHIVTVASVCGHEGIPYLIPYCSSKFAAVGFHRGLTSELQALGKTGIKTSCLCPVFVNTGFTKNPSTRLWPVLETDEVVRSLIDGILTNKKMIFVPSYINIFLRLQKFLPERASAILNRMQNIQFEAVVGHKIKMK
Sequence of HSD17B13 enzyme (Q7Z5P4 20-300): as above

Compound	IC50 (HSD17B13 enzyme) [nM]	IC50 (wild type human HSD17B13) [nM]
O=C(NC[C@H]1CC[C@H](n2cc3ccc(-c4cnn(C5CCOC5)c4)cc3n2)CC1)c1cc(F)c(O)c(F)c1 (some centres unmarked) [Example 38, 3,5-difluoro-4-hydroxy-N-{[(1r,4r)-4-{6-[1-(oxolan-3-yl)-1H-pyrazol-4-yl]-2H-indazol-2-yl}cyclohexyl]methyl} benzamide]	4.6	150
O=C(NC[C@H]1CC[C@H](n2cc3ccc(-c4cnn5c4OCC5)cc3n2)CC1)c1cc(F)c(O)c(F)c1 [Example 37, N-({(1r,4r)-4-[6-(2,3-dihydropyrazolo[5,1-b][1,3]oxazol-7-yl)-2H-indazol-2-yl]cyclohexyl}methyl)-3,5-difluoro-4-hydroxybenzamide]	8.4	150
O=C(NC[C@H]1CC[C@H](n2cc3cc(Cl)ccc3n2)CC1)c1cc(F)c(O)cc1F [Example 145, N-{[(1r,4r)-4-(5-chloro-2H-indazol-2-yl)cyclohexyl]methyl}-2,5-difluoro-4-hydroxybenzamide, trifluoroacetate salt]	18	260
O=C(NC[C@H]1CC[C@H](n2cc3ccc(-c4ccccc4)cc3n2)CC1)c1cc(F)c(O)c(F)c1 [Example 68, 3,5-difluoro-4-hydroxy-N-{[(1r,4r)-4-(6-phenyl-2H-indazol-2-yl)cyclohexyl]methyl} benzamide]	7.8	270
N#Cc1cccc(-c2ccc3cn([C@H]4CC[C@H](CNC(=O)c5cc(F)c(O)c(F)c5)CC4)nc3c2)c1 [Example 55, N-({(1r,4r)-4-[6-(3-cyanophenyl)-2H-indazol-2-yl]cyclohexyl}methyl)-3,5-difluoro-4-hydroxybenzamide]	17	230
O=C(NC[C@H]1CC[C@H](n2cc3ccc(-c4cnn(C5CCOCC5)c4)cc3n2)CC1)c1cc(F)c(O)c(F)c1 [Example 12, 3,5-Difluoro-4-hydroxy-N-{[(1r,4r)-4-{6-[1-(oxan-4-yl)-1H-pyrazol-4-yl]-2H-indazol-2-yl}cyclohexyl]methyl}benzamide]	11	290
O=C(NC[C@H]1CC[C@H](n2cc3ccc(-c4ccncc4)cc3n2)CC1)c1cc(F)c(O)c(F)c1 [Example 61, 3,5-difluoro-4-hydroxy-N-({(1r,4r)-4-[6-(pyridin-4-yl)-2H-indazol-2-yl]cyclohexyl}methyl)benzamide]	4.8	120
O=C(NC[C@H]1CC[C@H](n2cc3ccc(-c4cnn(C5COC5)c4)cc3n2)CC1)c1cc(F)c(O)c(F)c1 [Example 45, 3,5-difluoro-4-hydroxy-N-{[(1r,4r)-4-{6-[1-(oxetan-3-yl)-1H-pyrazol-4-yl]-2H-indazol-2-yl}cyclohexyl]methyl} benzamide]	5.4	220
O=C(NC[C@H]1CC[C@H](n2cc3cc(C(F)(F)F)ccc3n2)CC1)c1cc(F)c(O)c(F)c1 [Example 181, 3,5-difluoro-4-hydroxy-N-({(1r,4r)-4-[5-(trifluoromethyl)-2H-indazol-2-yl]cyclohexyl}methyl) benzamide]	16	230
O=C(NC[C@H]1CC[C@H](n2cc3ccccc3n2)CC1)c1cc(F)c(O)c(F)c1 [Example 22, 3,5-difluoro-4-hydroxy-N-{[(1r,4r)-4-(2H-indazol-2-yl)cyclohexyl]methyl} benzamide]	20	390
O=C(NC[C@H]1CC[C@H](n2cc3ccc(-c4cncnc4)cc3n2)CC1)c1cc(F)c(O)c(F)c1F [Example 9, 2,3,5-Trifluoro-4-hydroxy-N-({(1r,4r)-4-[6-(pyrimidin-5-yl)-2H-indazol-2-yl]cyclohexyl}methyl)benzamide]	13	170
Cc1ccc2cn([C@H]3CC[C@H](CNC(=O)c4cc(F)c(O)c(F)c4)CC3)nc2c1 [Example 130, 3,5-difluoro-4-hydroxy-N-{[(1r,4r)-4-(6-methyl-2H-indazol-2-yl)cyclohexyl]methyl}benzamide]	27	330
Cc1ccc2nn([C@H]3CC[C@H](CNC(=O)c4cc(F)c(O)c(F)c4)CC3)cc2c1 [Example 131, 3,5-difluoro-4-hydroxy-N-{[(1r,4r)-4-(5-methyl-2H-indazol-2-yl)cyclo-hexyl]methyl} benzamide]	27	270
O=C(NC[C@H]1CC[C@H](n2cc3ccc(-c4cnccn4)cc3n2)CC1)c1cc(F)c(O)c(F)c1 [Example 65, 3,5-difluoro-4-hydroxy-N-({(1r,4r)-4-[6-(pyrazin-2-yl)-2H-indazol-2-yl]cyclohexyl}methyl) benzamide]	13	170
O=C(NC[C@H]1CC[C@H](n2cc3ccc(-c4cscn4)cc3n2)CC1)c1cc(F)c(O)c(F)c1 [Example 69, 3,5-difluoro-4-hydroxy-N-({(1r,4r)-4-[6-(1,3-thiazol-4-yl)-2H-indazol-2-yl]cyclohexyl}methyl) benzamide]	8.4	130
CCn1cc(-c2ccc3cn([C@H]4CC[C@H](CNC(=O)c5cc(F)c(O)c(F)c5)CC4)nc3c2)cn1 [Example 47, N-({(1r,4r)-4-[6-(1-ethyl-1H-pyrazol-4-yl)-2H-indazol-2-yl]cyclohexyl}methyl)-3,5-difluoro-4-hydroxybenzamide]	< 4.4	110
Cn1cc(-c2ccc3cn([C@H]4CC[C@H](CNC(=O)c5cc(F)c(O)c(F)c5F)CC4)nc3c2)cn1 [Example 5, 2,3,5-Trifluoro-4-hydroxy-N-({(1r,4r)-4-[6-(1-methyl-1H-pyrazol-4-yl)-2H-indazol-2-yl]cyclohexyl}methyl)benzamide, trifluoroacetate salt]	> 2500	72
CCn1cc(-c2ccc3cn([C@H]4CC[C@H](CNC(=O)c5cc(F)c(O)c(F)c5F)CC4)nc3c2)cn1 [Example 150, N-({(1r,4r)-4-[6-(1-ethyl-1H-pyrazol-4-yl)-2H-indazol-2-yl]cyclohexyl}methyl)-2,3,5-trifluoro-4-hydroxybenzamide, trifluoroacetate salt]	4.8	120

Further lines, results first:

IC50 (HSD17B13 enzyme) [nM]	IC50 (wild type human HSD17B13) [nM]	Compound
12	470	O=C(NC[C@H]1CC[C@H](c2nc(-c3ccc(C(F)(F)F)cn3)no2)CC1)c1cc(F)c(O)c(F)c1 [Example 2, 3,5-Difluoro-4-hydroxy-N-{[(1r,4r)-4-{3-[5-(trifluoromethyl)pyridin-2-yl]-1,2,4-oxadiazol-5-yl}cyclohexyl]methyl}benzamide]
17	370	O=C(NC[C@]12CC[C@](c3nc(-c4cnc(C(F)(F)F)cn4)no3)(CC1)CC2)c1ccc(O)c(F)c1F [Example 177, 2,3-difluoro-4-hydroxy-N-[(4-{3-[5-(trifluoromethyl)pyrazin-2-yl]-1,2,4-oxadiazol-5-yl}bicyclo[2.2.2]octan-1-yl)methyl]benzamide]
7.1	160	COc1ccc(-c2noc([C@]34CC[C@](CNC(=O)c5cc(F)c(O)c(F)c5)(CC3)CC4)n2)nn1 [Example 124, 3,5-difluoro-4-hydroxy-N-({4-[3-(6-methoxypyridazin-3-yl)-1,2,4-oxadiazol-5-yl]bicyclo [2.2.2]octan-1-yl}methyl)benzamide]
5.5	290	O=C(NC[C@H]1CC[C@H](c2nc(-c3ncc(C(F)(F)F)cn3)no2)CC1)c1cc(F)c(O)c(F)c1 [Example 4, 3,5-Difluoro-4-hydroxy-N-{[(1r,4r)-4-{3-[5-(trifluoromethyl)pyrimidin-2-yl]-1,2,4-oxadiazol-5-yl}cyclohexyl]methyl}benzamide]
25	280	O=C(NC[C@H]1CC[C@H](n2cc3ccc(C(F)(F)F)cc3n2)CC1)c1cc(F)c(O)c(F)c1 [Example 137, 3,5-difluoro-4-hydroxy-N-({(1r,4r)-4-[6-(trifluoromethyl)-2H-indazol-2-yl]cyclohexyl}methyl) benzamide, ammonium salt]
16	230	O=C(NC[C@H]1CC[C@H](n2cc3cc(C(F)(F)F)ccc3n2)CC1)c1cc(F)c(O)c(F)c1F [Example 182, 2,3,5-trifluoro-4-hydroxy-N-({(1r,4r)-4-[5-(trifluoromethyl)-2H-indazol-2-yl]cyclohexyl}methyl) benzamide]
49	220	O=C(NC[C@]12CC[C@](n3cc4ccccc4n3)(CC1)CC2)c1cc(F)c(O)c(F)c1 [Example 202, 3,5-difluoro-4-hydroxy-N-{[4-(2H-indazol-2-yl)bicyclo [2.2.2]octan-1-yl]methyl}benzamide]
12	180	O=C(NC[C@H]1CC[C@H](n2cc3ccc(-c4ncccn4)cc3n2)CC1)c1cc(F)c(O)c(F)c1F [Example 27, 2,3,5-trifluoro-4-hydroxy-N-({(1r,4r)-4-[6-(pyrimidin-2-yl)-2H-indazol-2-yl]cyclohexyl}methyl) benzamide]
16	220	O=C(NC[C@]12CC[C@](c3nc(-c4ccc(C(F)(F)F)nc4)no3)(CC1)CC2)c1cc(F)c(O)c(F)c1 [Example 140, 3,5-difluoro-4-hydroxy-N-[(4-{3-[6-(trifluoromethyl)pyridin-3-yl]-1,2,4-oxadiazol-5-yl}bicyclo[2.2.2]octan-1-yl)methyl] benzamide]
13	350	COc1cnc(-c2noc([C@H]3CC[C@H](CNC(=O)c4cc(F)c(O)c(F)c4)CC3)n2)cn1 [Example 127, 3,5-difluoro-4-hydroxy-N-({(1r,4r)-4-[3-(5-methoxy-pyrazin-2-yl)-1,2,4-oxadiazol-5-yl]cyclohexyl}methyl) benzamide]
